{"source": "ChEMBL document CHEMBL5331129", "about": "“Discovery of NAFLD-Improving Agents by Promoting the Degradation of Keap1” (J Med Chem, 2023)", "key": {"[1]": {"experiment": "Toxicity in C57BL/6 mouse assessed as histopathological change in kidney at 2 mg/kg,ip qd administrated for 4 weeks by hematoxylin and eosin staining based assay", "format": "organism-based", "conditions": "in vivo, 672 h"}, "[2]": {"target": "Protein cereblon/Kelch-like ECH-associated protein 1 (Mus musculus, UniProt Q9Z2X8+Q8C7D2)", "sequence (Q9Z2X8 whole entry)": "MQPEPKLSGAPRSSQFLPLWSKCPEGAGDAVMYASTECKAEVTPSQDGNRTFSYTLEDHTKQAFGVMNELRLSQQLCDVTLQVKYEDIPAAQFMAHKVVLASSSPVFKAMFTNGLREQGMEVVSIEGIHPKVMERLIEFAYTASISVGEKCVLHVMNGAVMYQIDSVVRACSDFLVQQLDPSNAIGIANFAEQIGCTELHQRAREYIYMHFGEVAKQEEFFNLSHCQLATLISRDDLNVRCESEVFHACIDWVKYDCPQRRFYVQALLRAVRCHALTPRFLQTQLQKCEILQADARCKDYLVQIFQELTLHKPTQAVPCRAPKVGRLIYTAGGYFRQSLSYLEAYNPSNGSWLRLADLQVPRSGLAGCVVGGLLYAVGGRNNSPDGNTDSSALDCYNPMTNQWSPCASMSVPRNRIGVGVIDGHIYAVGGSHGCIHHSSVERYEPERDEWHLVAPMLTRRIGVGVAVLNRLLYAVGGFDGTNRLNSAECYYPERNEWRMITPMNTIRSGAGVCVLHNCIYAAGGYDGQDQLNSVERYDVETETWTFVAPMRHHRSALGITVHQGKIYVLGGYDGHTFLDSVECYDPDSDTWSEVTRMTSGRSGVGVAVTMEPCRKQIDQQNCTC", "sequence (Q8C7D2 whole entry)": "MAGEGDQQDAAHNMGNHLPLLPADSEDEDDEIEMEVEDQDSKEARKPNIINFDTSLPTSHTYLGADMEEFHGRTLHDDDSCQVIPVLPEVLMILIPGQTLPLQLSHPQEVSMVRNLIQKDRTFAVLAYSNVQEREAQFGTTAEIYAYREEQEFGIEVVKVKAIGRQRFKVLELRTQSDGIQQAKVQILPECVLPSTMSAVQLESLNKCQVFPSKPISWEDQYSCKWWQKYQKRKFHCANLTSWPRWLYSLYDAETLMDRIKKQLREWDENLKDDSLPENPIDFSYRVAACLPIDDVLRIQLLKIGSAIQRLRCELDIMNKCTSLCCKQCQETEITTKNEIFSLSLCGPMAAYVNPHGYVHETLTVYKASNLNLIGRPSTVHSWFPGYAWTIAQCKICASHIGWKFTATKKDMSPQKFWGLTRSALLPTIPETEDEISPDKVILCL", "experiment": "PROTAC activity at CRBN/Keap1 in mouse AML12 cells assessed as degradation of Keap1 protein at 0.5 to 2 uM incubated for 48 hrs by Western blotting analysis", "format": "cell-based"}, "[3]": {"experiment": "Acute toxicity in C57BL/6 mouse assessed as histopathological change in heart at 20 mg/kg,ip qd administrated for 3 consecutive days and measured on day 4 by hematoxylin and eosin staining based assay", "format": "organism-based", "conditions": "in vivo"}, "[4]": {"experiment": "Toxicity in C57BL/6 mouse assessed as histopathological change in lung at 2 mg/kg,ip qd administrated for 4 weeks by hematoxylin and eosin staining based assay", "format": "organism-based", "conditions": "in vivo, 672 h"}, "Mus musculus [5]": {"tested_on": "Mus musculus", "experiment": "Antioxidant activity against MCD diet-induced oxidative stress in C57Bl/6 mouse model of NAFLD assessed as increase in CAT level in liver at 0.5 to 2 mg/kg,ip administrated for 4 weeks", "format": "functional, organism-based", "conditions": "dose 0.5-2 mg/kg"}, "[6]": {"target": "T1, Protein cereblon/Kelch-like ECH-associated protein 1 (Mus musculus) (UniProt Q9Z2X8+Q8C7D2)", "T1 sequence (Q8C7D2 whole entry, looked up)": "as the sequence (Q8C7D2 whole entry) above", "T1 sequence (Q9Z2X8 whole entry, looked up)": "as the sequence (Q9Z2X8 whole entry) above", "experiment": "PROTAC activity at CRBN/Keap1 in mouse AML12 cells assessed as degradation of Keap1 protein at 1 uM incubated for 24 hrs by Western blotting analysis", "format": "cell-based"}, "[7]": {"target": "T1, Protein cereblon/Kelch-like ECH-associated protein 1 (Mus musculus)", "experiment": "PROTAC activity at CRBN/Keap1 in mouse AML12 cells assessed as degradation of Keap1 protein level at 1 uM preincubated with CDDO followed by compound addition and incubated for 24 hrs by Western blotting analysis", "format": "cell-based"}, "Mus musculus [8]": {"tested_on": "Mus musculus", "experiment": "Antioxidant activity against MCD diet-induced oxidative stress in C57Bl/6 mouse model of NAFLD assessed as downregulation of liver Keap1 protein expression level at 0.5 to 2 mg/kg,ip administrated for 4 weeks by immunofluorescence staining analysis", "format": "functional, organism-based", "conditions": "dose 0.5-2 mg/kg"}, "[9]": {"experiment": "Acute toxicity in C57BL/6 mouse assessed as histopathological change in lung at 20 mg/kg,ip qd administrated for 3 consecutive days and measured on day 4 by hematoxylin and eosin staining based assay", "format": "organism-based", "conditions": "in vivo"}, "Mus musculus [10]": {"tested_on": "Mus musculus", "experiment": "Antioxidant activity against MCD diet-induced oxidative stress in C57Bl/6 mouse model of NAFLD assessed as upregulation of liver Nrf2 protein expression level at 0.5 to 2 mg/kg,ip administrated for 4 weeks by immunofluorescence staining analysis", "format": "functional, organism-based", "conditions": "dose 0.5-2 mg/kg"}, "Mus musculus [11]": {"tested_on": "Mus musculus", "experiment": "Antioxidant activity against MCD diet-induced oxidative stress in C57Bl/6 mouse model of NAFLD assessed as downregulation of liver Keap1 protein expression level at 0.5 to 2 mg/kg,ip administrated for 4 weeks by immunohistochemical staining assay", "format": "functional, organism-based", "conditions": "dose 0.5-2 mg/kg"}, "Mus musculus [12]": {"tested_on": "Mus musculus", "experiment": "Antioxidant activity against MCD diet-induced oxidative stress in C57Bl/6 mouse model of NAFLD assessed as increase in GSH level in liver at 0.5 to 2 mg/kg,ip administrated for 4 weeks", "format": "functional, organism-based", "conditions": "dose 0.5-2 mg/kg"}, "Mus musculus [13]": {"tested_on": "Mus musculus", "experiment": "Antioxidant activity against MCD diet-induced oxidative stress in C57Bl/6 mouse model of NAFLD assessed as upregulation of liver Nrf2 protein expression level at 0.5 to 2 mg/kg,ip administrated for 4 weeks by immunoblot analysis", "format": "functional, organism-based", "conditions": "dose 0.5-2 mg/kg"}, "Mus musculus [14]": {"tested_on": "Mus musculus", "experiment": "Antioxidant activity against MCD diet-induced oxidative stress in C57Bl/6 mouse model of NAFLD assessed as reduction of pericellular fibrosis in liver at ip administrated for 4 weeks by Sirius red staining based analysis", "format": "functional, organism-based"}, "Mus musculus [15]": {"tested_on": "Mus musculus", "experiment": "Antioxidant activity against MCD diet-induced oxidative stress in C57Bl/6 mouse model of NAFLD assessed as increase in serum HDL-C level at ip administrated for 4 weeks", "format": "functional, organism-based"}, "[16]": {"experiment": "Toxicity in C57BL/6 mouse assessed as change in body weight at 2 mg/kg,ip qd administrated for 4 weeks", "format": "organism-based", "conditions": "in vivo, 672 h"}, "Mus musculus [17]": {"tested_on": "Mus musculus", "experiment": "Antioxidant activity against MCD diet-induced oxidative stress in C57Bl/6 mouse model of NAFLD assessed as reduction of serum aminotransferase level at 0.5 to 2 mg/kg,ip administrated for 4 weeks", "format": "functional, organism-based", "conditions": "dose 0.5-2 mg/kg"}, "[18]": {"target": "T1, Protein cereblon/Kelch-like ECH-associated protein 1 (Mus musculus)", "experiment": "PROTAC activity at CRBN/Keap1 in mouse AML12 cells assessed as degradation of Keap1 protein at 0.5 to 2 uM incubated for 6 to 48 hrs by Western blotting analysis", "format": "cell-based", "conditions": "dose 0.5-2 µM, time 6-48 hrs, TDE = time-dependent effect"}, "AML12 [19]": {"tested_on": "AML12", "experiment": "Antioxidant activity against free fatty acid induced oxidative stress in mouse AML12 cells assessed as increase in SOD level at 0.125 to 0.5 uM", "format": "functional, cell-based", "conditions": "dose 0.125-0.5 µM"}, "AML12 [20]": {"tested_on": "AML12", "experiment": "Antioxidant activity against free fatty acid induced oxidative stress in mouse AML12 cells assessed as upregulation of HO-1 protein expression level at 0.125 to 0.5 uM incubated for 24 hrs by immunoblot analysis", "format": "functional, cell-based", "conditions": "dose 0.125-0.5 µM"}, "[21]": {"target": "T1, Protein cereblon/Kelch-like ECH-associated protein 1 (Mus musculus)", "experiment": "PROTAC activity at CRBN/Keap1 in mouse AML12 cells assessed as degradation of Keap1 protein level at 1 uM preincubated with proteasome inhibitor, MG-132 followed by compound addition and incubated for 24 hrs by Western blotting analysis", "format": "cell-based"}, "[22]": {"experiment": "Acute toxicity in C57BL/6 mouse assessed as histopathological change in kidney at 20 mg/kg,ip qd administrated for 3 consecutive days and measured on day 4 by hematoxylin and eosin staining based assay", "format": "organism-based", "conditions": "in vivo"}, "[23]": {"target": "Kelch-like ECH-associated protein 1 (Homo sapiens, UniProt Q14145)", "sequence (Q14145 whole entry)": "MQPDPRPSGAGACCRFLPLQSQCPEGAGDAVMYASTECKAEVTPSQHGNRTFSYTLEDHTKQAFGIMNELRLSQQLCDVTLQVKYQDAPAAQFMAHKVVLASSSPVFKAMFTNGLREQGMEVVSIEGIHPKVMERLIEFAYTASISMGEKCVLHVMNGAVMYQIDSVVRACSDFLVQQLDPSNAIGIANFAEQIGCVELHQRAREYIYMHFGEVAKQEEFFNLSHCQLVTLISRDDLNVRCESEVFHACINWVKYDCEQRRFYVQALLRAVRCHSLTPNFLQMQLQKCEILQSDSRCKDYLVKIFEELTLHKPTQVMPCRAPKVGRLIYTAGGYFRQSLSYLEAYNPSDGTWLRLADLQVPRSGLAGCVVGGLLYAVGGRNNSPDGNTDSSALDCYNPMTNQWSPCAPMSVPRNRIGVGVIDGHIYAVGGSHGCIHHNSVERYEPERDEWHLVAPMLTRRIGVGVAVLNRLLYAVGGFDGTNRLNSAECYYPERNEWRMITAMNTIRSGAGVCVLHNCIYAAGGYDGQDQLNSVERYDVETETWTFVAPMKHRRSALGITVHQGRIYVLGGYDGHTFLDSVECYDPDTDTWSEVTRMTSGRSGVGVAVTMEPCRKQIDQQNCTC", "experiment": "Binding affinity to Keap1 (unknown origin) assessed as dissociation constant incubated for 200 sec by sensor chip immobilization based surface plasmon resonance analysis"}, "[24]": {"target": "T1, Protein cereblon/Kelch-like ECH-associated protein 1 (Mus musculus)", "experiment": "PROTAC activity at CRBN/Keap1 in mouse AML12 cells assessed as degradation of Keap1 protein incubated for 6 to 48 hrs by Western blotting analysis", "format": "cell-based", "conditions": "time 6-48 hrs"}, "Mus musculus [25]": {"tested_on": "Mus musculus", "experiment": "Antioxidant activity against MCD diet-induced oxidative stress in C57Bl/6 mouse model of NAFLD assessed as upregulation of liver NQO1 protein expression level at 0.5 to 2 mg/kg,ip administrated for 4 weeks by immunohistochemical staining assay", "format": "functional, organism-based", "conditions": "dose 0.5-2 mg/kg"}, "[26]": {"experiment": "Toxicity in MCD diet-induced oxidative stress in C57Bl/6 mouse model of NAFLD assessed as decrease in ratio of liver weight to body weight at ip administrated for 4 weeks […]", "format": "organism-based", "conditions": "in vivo, 672 h"}, "AML12 [27]": {"tested_on": "AML12", "experiment": "Antioxidant activity against free fatty acid induced oxidative stress in mouse AML12 cells assessed as upregulation of Nrf2 protein expression level at 0.125 to 0.5 uM incubated for 24 hrs by immunofluorescence staining analysis", "format": "functional, cell-based", "conditions": "dose 0.125-0.5 µM"}}, "note": "Active and inactive are the calls of the source. The rule behind the calls is not given here."}
{"smiles": "CC1(C)CC[C@]2(C(=O)NCCCCCNc3cccc4c3C(=O)N(C3CCC(=O)NC3=O)C4=O)CC[C@]3(C)[C@H](C(=O)C=C4C5(C)C=C(C#N)C(=O)C(C)(C)[C@@H]5CC[C@]43C)[C@@H]2C1", "note": "(single isomer, unassigned)", "values": [{"measurement": "Activity", "setting": "[1]", "result": "Non-Toxic"}, {"measurement": "DC50", "setting": "[2]", "result": 0.21, "unit": "µM"}, {"measurement": "Activity", "setting": "[3]", "result": "Toxic"}, {"measurement": "Activity", "setting": "[4]", "result": "Non-Toxic"}, {"measurement": "Activity", "setting": "Mus musculus [5]", "result": "Active"}, {"measurement": "Activity", "setting": "[6]", "result": "Active"}, {"measurement": "Activity", "setting": "[7]", "result": "inactive"}, {"measurement": "Activity", "setting": "Mus musculus [8]", "result": "Dose-Dependent Effect"}, {"measurement": "Activity", "setting": "[9]", "result": "Non-Toxic"}, {"measurement": "Activity", "setting": "Mus musculus [10]", "result": "Dose-Dependent Effect"}, {"measurement": "Activity", "setting": "Mus musculus [11]", "result": "Dose-Dependent Effect"}, {"measurement": "Activity", "setting": "Mus musculus [12]", "result": "Active"}, {"measurement": "Activity", "setting": "Mus musculus [13]", "result": "Dose-Dependent Effect"}, {"measurement": "Activity", "setting": "Mus musculus [14]", "result": "Dose-Dependent Effect"}, {"measurement": "Activity", "setting": "Mus musculus [15]", "result": "Dose-Dependent Effect"}, {"measurement": "Activity", "setting": "[16]", "result": "Toxic"}, {"measurement": "Activity", "setting": "Mus musculus [17]", "result": "Active"}, {"measurement": "Activity", "setting": "[18]", "result": "Tde"}, {"measurement": "Activity", "setting": "AML12 [19]", "result": "Active"}, {"measurement": "Activity", "setting": "AML12 [20]", "result": "Active"}, {"measurement": "Activity", "setting": "[21]", "result": "inactive"}, {"measurement": "Activity", "setting": "[22]", "result": "Non-Toxic"}, {"measurement": "Kd", "setting": "[23]", "result": 11.9, "unit": "µM"}, {"measurement": "Activity", "setting": "[24]", "result": "Dose-Dependent Effect"}, {"measurement": "Activity", "setting": "Mus musculus [25]", "result": "Dose-Dependent Effect"}, {"measurement": "Activity", "setting": "[26]", "result": "Non-Toxic"}, {"measurement": "Activity", "setting": "AML12 [27]", "result": "Active"}]}
